Broadly, the inhibition is how much of the control response was suppressed. For orientation: EC50 means the concentration needed to bring the measured effect to its halfway point. Higher therefore signals weaker potency. Usually Km stands for the substrate concentration at which the rate is half of its maximum. One may read the kcat as the maximal rate divided by the concentration of active sites. One may read the kcat/Km as the turnover number divided by the Michaelis constant.

Series [1] concerns the target T1, SIRT6 (Homo sapiens, UniProt Q8N6T7). Nature of the series: fluorogenic demyristoylase assay (BPS Bioscience), myristoyl peptide substrate. Type of series: biochemical.
Target sequence in this assay (Q8N6T7 2-355): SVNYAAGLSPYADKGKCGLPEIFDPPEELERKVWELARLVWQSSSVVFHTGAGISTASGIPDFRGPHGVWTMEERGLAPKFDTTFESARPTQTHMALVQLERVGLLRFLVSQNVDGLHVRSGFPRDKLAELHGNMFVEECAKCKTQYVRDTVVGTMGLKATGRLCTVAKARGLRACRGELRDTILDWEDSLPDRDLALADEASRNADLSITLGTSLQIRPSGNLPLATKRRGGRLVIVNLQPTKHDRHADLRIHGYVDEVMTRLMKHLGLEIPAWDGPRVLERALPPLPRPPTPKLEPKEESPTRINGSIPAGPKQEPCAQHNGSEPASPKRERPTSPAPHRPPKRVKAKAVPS
The target in series [2] is T1, SIRT6. Nature of the series: HPLC deacetylation assay, single concentration […]. As to conditions: read-out: % inhibition at 100 μM. Type of series: biochemical.
Target sequence in this assay (Q8N6T7 whole entry): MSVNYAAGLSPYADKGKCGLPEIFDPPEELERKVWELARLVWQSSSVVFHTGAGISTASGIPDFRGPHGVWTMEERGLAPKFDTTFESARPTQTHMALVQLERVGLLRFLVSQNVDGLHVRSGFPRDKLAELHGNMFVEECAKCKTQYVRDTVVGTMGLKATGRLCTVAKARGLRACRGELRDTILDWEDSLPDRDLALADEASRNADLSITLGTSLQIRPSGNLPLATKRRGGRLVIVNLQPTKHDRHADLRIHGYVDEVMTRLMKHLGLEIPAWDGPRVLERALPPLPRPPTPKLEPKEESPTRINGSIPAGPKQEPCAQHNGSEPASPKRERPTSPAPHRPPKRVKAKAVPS
Another series concerns the target T2, SIRT2 (Homo sapiens, UniProt Q8IXJ6).
T2 sequence (Q8IXJ6 2-389): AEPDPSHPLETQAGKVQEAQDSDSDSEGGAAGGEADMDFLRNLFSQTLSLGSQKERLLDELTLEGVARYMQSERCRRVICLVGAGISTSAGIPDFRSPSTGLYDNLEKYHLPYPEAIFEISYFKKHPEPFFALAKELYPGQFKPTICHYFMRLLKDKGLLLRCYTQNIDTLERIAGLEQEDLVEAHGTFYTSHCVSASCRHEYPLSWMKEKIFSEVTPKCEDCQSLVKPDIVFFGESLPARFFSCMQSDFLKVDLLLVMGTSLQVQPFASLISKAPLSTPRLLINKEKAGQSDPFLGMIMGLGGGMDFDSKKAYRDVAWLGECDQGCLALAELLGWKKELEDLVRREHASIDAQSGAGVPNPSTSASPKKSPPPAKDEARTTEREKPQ
Nature of the series: fluorogenic deacetylation assay (BioMol KI179 substrate), single concentration […]. Type of series: biochemical.

Series [3] deals with T1, SIRT6. Nature of the series: HPLC deacetylation assay with H3K9Ac peptide; dose response and steady-state kinetics (activation). Type of series: biochemical.
Target sequence in this assay (Q8N6T7 whole entry): as the sequence (Q8N6T7 whole entry) above
Series [4] has as its system T3, NC(=O)c1ccc[n+]([C@@H]2O[C@H](COP(=O)([O-])OP(=O)(O)OC[C@H]3O[C@@H](n4cnc5c(N)ncnc54)[C@H](O)[C@@H]3O)[C@@H](O)[C@H]2O)c1.
T3 construct: GST-tagged recombinant SIRT6
Nature of the series: steady-state Michaelis-Menten kinetics by HPLC (Km, DMSO control). Format: biochemical, Homo sapiens.

In turn, `NC(=O)c1cccnc1` [NAM] gave an inhibition at 200 µM against SIRT6 [1] of 86 ± 13%.

As to `O=c1c(O)c(-c2ccc(O)c(O)c2)oc2cc(O)cc(O)c12` [Q, quercetin], the inhibition at 100 µM on SIRT6 [2] amounted to 30%. Turning to `Cc1c(-c2ccccc2)oc2c(CC(=O)OCC(=O)c3ccc(O)cc3O)cccc2c1=O` [compound 1, (2,4-dihydroxy-phenyl)–2-oxoethyl 2-(3-methyl-4-oxo-2-phenyl-4H-chromen-8-yl)acetate], the inhibition at 200 µM at SIRT2 stood at 53 ± 1.3%. In addition, on SIRT6 [3], the EC50 came out at 80 ± 12 µM.

As for SIRT6 (Homo sapiens), in series [4], the Km is 1190 ± 450 µM, the kcat worked out at 0.0022 ± 0.0004 s⁻¹ and the specificity constant (kcat/Km) was found to be 1.9 M⁻¹ s⁻¹.

The values are drawn from paper PMC12036750, “Screening of SIRT6 inhibitors and activators: A novel activator has an impact on breast cancer cells” (Biomedicine & pharmacotherapy = Biomedecine & …, 2021).
